Measured values as given in patent US20240016860A1, “BACILLUS COAGULANS FOR IMPROVING CONSTIPATION AND APPLICATION THEREOF” (Thankcome Biological Science and Technology (Suzhou) Co., …, priority 2022, published 2024).

Columns and labels:
Type in all cases: in vivo, Kunming mice
COX-2 mRNA = assay: RT-qPCR mRNA expression in small intestine: COX-2; details: 2^−ΔΔCt, actin reference, Bis group: bisacodyl 100 mg/kg per day
Experimental: (§1) After a week of adaptive culture, 40 mice are randomly divided into 5 groups, with 8 mice in each group, namely the group of normal control (NC), group of model (GM), BC69 low-dose group (BC-L), BC69 high-dose group (BC-H) and bisacodyl drug treatment group (Bis). […]
(§2) Messenger ribonucleic acid (mRNA) expressions of COX-2, c-kit, NFκB, iNOS, eNOS, nNOS and SCF are detected by RT-qPCR, and total RNA is extracted and complementary deoxyribonucleic acid (cDNA) reverse transcription is carried out according to the instructions of RNA extraction kit and cDNA reverse transcription kit; then a microspectrophotometer is used to identify the purity of the RNA at 260/280 nanometers (nm). Actin (actin) is used as a standardized internal reference for RT-qPCR analysis, and final RT-qPCR product expression is determined using the 2^−ΔΔCt method.

motilin (MTL) = assay: Serum gastrointestinal hormone ELISA: MTL; details: Bis group: bisacodyl 100 mg/kg per day
Experimental: (§3) After a week of adaptive culture, 40 mice are randomly divided into 5 groups, with 8 mice in each group, namely the group of normal control (NC), group of model (GM), BC69 low-dose group (BC-L), BC69 high-dose group (BC-H) and bisacodyl drug treatment group (Bis). During the experiment, saline gavage of 0.25 mL is administered daily to NC and GM mice; from day 1 to day 4, all mice except NC mice are additionally gavaged with loperamide hydrochloride suspension (1 mg/mL) 0.25 mL twice daily (at 9:00 a.m. and 2:00 p.m. respectively) to induce a functional constipation model of mice; after gavage on day 4, all mice are fasted from food but not water for 16 h; from day 5 to day 11, […] are gavaged with Bacillus coagulans BC suspension 0.25 mL every day, where the concentrations are 1.0×10^8 colony-forming units per milliliter (CFU/mL) and 4.0×10^9 CFU/mL respectively; mice of group Bis are gavaged with bisacodyl aqueous solution at 100 milligrams per kilogram (mg/kg) per day; after the completion of gavage on day 11, all groups of mice are fasted from food but not water for 16 h. […]
(§4) The contents of endothelin (ET), gastrin (Gas), motilin (MTL), substance P (SP), somatostatin (SS) and vasoactive intestinal peptide (VIP) in serum are determined according to the instructions of the enzyme-linked immuno sorbent assay (ELISA) kit.

SCF mRNA = assay: RT-qPCR mRNA expression in small intestine: SCF; details: 2^−ΔΔCt, actin reference, Bis group: bisacodyl 100 mg/kg per day
Experimental: as §1, §2

gastrin (Gas) = assay: Serum gastrointestinal hormone ELISA: Gas; details: Bis group: bisacodyl 100 mg/kg per day
Experimental: as §3, §4

iNOS mRNA = assay: RT-qPCR mRNA expression in small intestine: iNOS; details: 2^−ΔΔCt, actin reference, Bis group: bisacodyl 100 mg/kg per day
Experimental: as §1, §2

NFκB mRNA = assay: RT-qPCR mRNA expression in small intestine: NFκB; details: 2^−ΔΔCt, actin reference, Bis group: bisacodyl 100 mg/kg per day
Experimental: as §1, §2

eNOS mRNA = assay: RT-qPCR mRNA expression in small intestine: eNOS; details: 2^−ΔΔCt, actin reference, Bis group: bisacodyl 100 mg/kg per day
Experimental: as §1, §2

c-kit mRNA = assay: RT-qPCR mRNA expression in small intestine: c-kit; details: 2^−ΔΔCt, actin reference, Bis group: bisacodyl 100 mg/kg per day
Experimental: as §1, §2

somatostatin (SS) = assay: Serum gastrointestinal hormone ELISA: SS; details: Bis group: bisacodyl 100 mg/kg per day
Experimental: as §3, §4

[1] = test system: vasoactive intestinal peptide (VIP); assay: Serum gastrointestinal hormone ELISA: VIP; details: Bis group: bisacodyl 100 mg/kg per day
Experimental: as §3, §4

nNOS mRNA = assay: RT-qPCR mRNA expression in small intestine: nNOS; details: 2^−ΔΔCt, actin reference, Bis group: bisacodyl 100 mg/kg per day
Experimental: as §1, §2

substance P (SP) = assay: Serum gastrointestinal hormone ELISA: SP; details: Bis group: bisacodyl 100 mg/kg per day
Experimental: as §3, §4

endothelin-1 (ET-1) = assay: Serum gastrointestinal hormone ELISA: ET-1; details: Bis group: bisacodyl 100 mg/kg per day
Experimental: as §3, §4

CC(=O)Oc1ccc(C(c2ccc(OC(C)=O)cc2)c2ccccn2)cc1 [Bis, bisacodyl]
mRNA expression levels COX-2 (COX-2 mRNA): 0.43 ± 0.05
MTL (motilin (MTL)): 57.89 ± 2.65 pg/mL
mRNA expression levels SCF (SCF mRNA): 3.66 ± 0.62
Gas (gastrin (Gas)): 10.09 ± 0.69 pg/mL
mRNA expression levels iNos (iNOS mRNA): 0.04 ± 0.00
mRNA expression levels NFκB (NFκB mRNA): 2.21 ± 0.84
mRNA expression levels eNos (eNOS mRNA): 0.03 ± 0.00
mRNA expression levels c-kit (c-kit mRNA): 0.08 ± 0.01
SS (somatostatin (SS)): 28.09 ± 1.89 pg/mL
VIP [1]: 36.13 ± 2.37 pg/mL
mRNA expression levels nNos (nNOS mRNA): 0.04 ± 0.00
SP (substance P (SP)): 51.60 ± 3.48 pg/mL
ET-1 (endothelin-1 (ET-1)): 21.44 ± 1.28 pg/mL
